Laboratory results taken from the supplement of paper PMC10627819.

Assays:
[1] = tested on: S. pneumoniae D39V; assay: fitness (endpoint OD595 vs no drug) (fraction); higher = more growth
Summary of the method: (§1)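 Fitness was measured as bacterial growth in 384-well plates inoculated at OD595 0.01 (30 µl, or 55 µl for S. pneumoniae). Media were TSB, LB Lennox or CY, at 37 °C. OD595 was read every 30 min for 14 h and background-subtracted against the first reading. Fitness is OD595 at the transition into stationary phase divided by the robust mean of no-drug control wells, capped at 1.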

[2] = tested on: S. aureus DSM 20231; assay: as above
Summary of the method: as §1

[3] = tested on: S. aureus Newman; assay: as above
Summary of the method: as §1

[4] = tested on: S. pneumoniae D39V; assay: Bliss interaction score (quartile over a dose matrix) (fitness difference); higher = more antagonism (negative = synergy)
Summary of the method: (§2)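 The Bliss score is observed fitness minus expected fitness, where the expected value is the product of single-drug fitness values inferred from combination data. Fitness is OD595 at entry into stationary phase normalised to the plate's robust no-drug mean and capped at 1. Scores are reported as quartiles spanning technical, biological and donor/recipient replicates.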

[5] = tested on: S. aureus DSM 20231; assay: as above
Summary of the method: as §2

[6] = tested on: B. subtilis 168; assay: as above
Summary of the method: as §2

[7] = tested on: S. aureus Newman; assay: as above
Summary of the method: as §2
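Wherever Bliss interaction score (quartile over a dose matrix) is given: first quartile when negative (synergy) and third quartile when positive (antagonism).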
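Wherever fitness (endpoint OD595 vs no drug) is given: OD595 on entry to stationary phase over no-drug wells; at most 1.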

CO/N=C(\C(=O)N[C@@H]1C(=O)N2C(C(=O)[O-])=C(C[N+]3(C)CCCC3)CS[C@H]12)c1csc(N)n1 [Cefepime] + Cc1onc(-c2ccccc2)c1C(=O)N[C@@H]1C(=O)N2[C@@H]1SC(C)(C)[C@@H]2C(=O)O [Oxacillin]
Details	fitness
[1], first compound 0.007 µg/mL, partner 0.005 µg/mL	0.997
[1], first compound 0.007 µg/mL, partner 0.01 µg/mL	≥ 1
[1], first compound 0.007 µg/mL, partner 0.02 µg/mL	0.986
[1], first compound 0.0078 µg/mL, partner 0.01 µg/mL	0.95
[1], first compound 0.0078 µg/mL, partner 0.02 µg/mL	0.825
[1], first compound 0.0078 µg/mL, partner 0.04 µg/mL	0.254
[1], first compound 0.014 µg/mL, partner 0.005 µg/mL	≥ 1
[1], first compound 0.014 µg/mL, partner 0.01 µg/mL	≥ 1
[1], first compound 0.014 µg/mL, partner 0.02 µg/mL	1
[1], first compound 0.0155 µg/mL, partner 0.01 µg/mL	0.86
[1], first compound 0.0155 µg/mL, partner 0.04 µg/mL	0.153
[1], first compound 0.028 µg/mL, partner 0.005 µg/mL	0.955
[1], first compound 0.028 µg/mL, partner 0.01 µg/mL	0.942
[1], first compound 0.028 µg/mL, partner 0.02 µg/mL	0.847
[1], first compound 0.031 µg/mL, partner 0.04 µg/mL	0.0453
[2], first compound 0.125 µg/mL, partner 0.0156 µg/mL	0.75
[2], first compound 0.125 µg/mL, partner 0.0312 µg/mL	0.641
[2], first compound 0.125 µg/mL, partner 0.0625 µg/mL	0.507
[2], first compound 0.25 µg/mL, partner 0.0156 µg/mL	0.826
[2], first compound 0.25 µg/mL, partner 0.0312 µg/mL	0.634
[2], first compound 0.25 µg/mL, partner 0.0625 µg/mL	0.578
[2], first compound 0.5 µg/mL, partner 0.0156 µg/mL	0.624
[2], first compound 0.5 µg/mL, partner 0.0312 µg/mL	0.565
[2], first compound 0.5 µg/mL, partner 0.0625 µg/mL	0.53
[3], first compound 0.125 µg/mL, partner 0.0156 µg/mL	0.828
[3], first compound 0.125 µg/mL, partner 0.0312 µg/mL	0.796
[3], first compound 0.125 µg/mL, partner 0.0625 µg/mL	0.71
[3], first compound 0.25 µg/mL, partner 0.0156 µg/mL	0.804
[3], first compound 0.25 µg/mL, partner 0.0312 µg/mL	0.753
[3], first compound 0.25 µg/mL, partner 0.0625 µg/mL	0.682
[3], first compound 0.5 µg/mL, partner 0.0156 µg/mL	0.768
[3], first compound 0.5 µg/mL, partner 0.0312 µg/mL	0.684
[3], first compound 0.5 µg/mL, partner 0.0625 µg/mL	0.667

Details	Bliss interaction score
[4]	-0.138
[5]	-0.054
[6]	-0.0609
[7]	0.11

CO/N=C(\C(=O)N[C@@H]1C(=O)N2C(C(=O)[O-])=C(C[N+]3(C)CCCC3)CS[C@H]12)c1csc(N)n1 [Cefepime] + Cc1cc(NS(=O)(=O)c2ccc(N)cc2)no1 [Sulfamethoxazol]
fitness
Details	first compound 0.007 µg/mL	first compound 0.014 µg/mL	first compound 0.028 µg/mL	first compound 0.125 µg/mL	first compound 0.25 µg/mL	first compound 0.5 µg/mL
[1], partner 1 µg/mL	0.978	0.991	0.887	–	–	–
[1], partner 2 µg/mL	0.982	0.986	0.922	–	–	–
[1], partner 4 µg/mL	0.98	0.992	0.892	–	–	–
[2], partner 1 µg/mL	–	–	–	0.839	0.739	0.79
[2], partner 2 µg/mL	–	–	–	0.88	0.766	0.84
[2], partner 4 µg/mL	–	–	–	0.874	0.779	0.823
[3], partner 1 µg/mL	–	–	–	0.956	0.875	0.745
[3], partner 2 µg/mL	–	–	–	0.908	0.843	0.773
[3], partner 4 µg/mL	–	–	–	0.964	0.863	0.789

fitness, one replicate
Details	first compound 0.0078 µg/mL	first compound 0.0155 µg/mL	first compound 0.031 µg/mL	first compound 0.125 µg/mL	first compound 0.25 µg/mL	first compound 0.5 µg/mL
[1], partner 1 µg/mL	≥ 1	0.99	0.842	–	–	–
[1], partner 2 µg/mL	≥ 1	≥ 1	0.866	–	–	–
[1], partner 4 µg/mL	0.959	0.914	0.804	–	–	–
[3], partner 8 µg/mL	–	–	–	0.981	0.972	0.854

Details	Bliss interaction score
[4]	0.034
[5]	-0.0768
[6]	0.0793
[7]	-0.0727
